Consider 9 compounds from US11752155B2, “Treatment of autism spectrum disorders, obsessive-compulsive disorder and anxiety disorders” (Rugen Holdings (Cayman) Limited, priority 2016, dated 2023).

“And” between values parts separate entries of the source, which are not always exact repeats. Equal entries are not always repeated. Where two headings read alike, the source gives them in different places. Where only a bound is given, the exact number is not on record here.

Usually IC50 stands for the concentration needed to halve the response being measured. The term Ki denotes a dissociation constant, usually derived from enzyme kinetics or from competition with a known ligand.

The target in one data set is hERG channel (Homo sapiens (Human), UniProt Q12809). Put plainly: hERG channel inhibition, whole cell patch clamp in HEK293 cells. Format: cell-based. The conditions noted are these: for inhibition at 5 min, 10 µM: human, HEK293 cells stably expressing hERG channel, pH 7.35; for IC50: Table 1.3B.
For another data set, the target named is CYP2D6 (Homo sapiens (Human), UniProt P10635). Kind of data set: CYP P450 enzyme inhibition in pooled human liver microsomes (dextromethorphan probe). Format: in vitro ADME. The conditions noted are these: for inhibition at 10 min, 10 µM: human, pooled human liver microsomes, pH 7.4, probe dextromethorphan, 5 μM, read-out: CYP2D6 Inhibiton at 10 μM; for IC50: Table 1.4B. How it is done:
Test compound concentration-dependent response studies were performed in triplicate.
In general terms: Liver microsomes are a subcellular fraction often used to study metabolism.

In a further data set the target is human NR1/NR2B (Homo sapiens (Human), UniProt Q05586+Q13224). Kind of data set: NR2B antagonist activity: calcium influx (Fluo-4) assay in HEK293 cells. The class given is cell-based. The conditions noted are these: read-out: NR2B IC50. How it is done: Activation of the NR2A or NR2B subtype of NMDA receptor with glutamate as an agonist and glycine co-agonist on these cells results in calcium influx, which can be monitored with fluorescent indicator Fluo-4.
For experiments, the cells were seeded onto poly-D-lysine-coated 96-well black plates with clear bottom (Corning) at a density of ˜50,000 cells/well. After overnight culture, the growth medium was removed from the wells and the cells were incubated at 37° C. for 60 minutes in Hanks buffer containing 4 μM fluo-4-AM (Invitrogen) and 0.1% bovine serum albumin (BSA). After dye-loading, the cells were washed three times with Hanks buffer and incubated for 10 minutes at room temperature with various concentrations of test compounds prepared in Hanks buffer with 0.1% BSA. The cell plates were placed onto an FDSS Cell fluorescence reader (Hamamatsu). After 20 seconds of reading background fluorescence, agonist glutamate at final 100 µM and co-agonist glycine at final 50 μM were added to the cells to activate the receptor, and the resulting fluorescence changes were recorded and quantified. Based on the changes in fluorescence intensity, the pharmacological effect of test compounds was analyzed and the IC50 values derived from a non-linear least squares fitting of the concentration-dependent response to a standard logistic equation using Prism (Graphpad Software, Inc.): Amplitude=Max Amplitude/(1+(IC50/[antagonist])^n).

Data set [1] concerns the target native rat brain NR2B receptors (Rattus norvegicus (Rat), UniProt P35439+Q00960). Kind of data set: NR2B radioligand binding assay in rat brain using [3H] (E)-N1-(2-methoxybenzyl)-cinnamidine. The conditions noted are these: rat brain NR2B receptors. As to the method: This example describes an NR2B receptor binding assay in rat brain using [^3H] […] The binding assay method was adapted from a previously described cellular human NR1a/NR2B cloned receptor assay (Kiss et al. Neurochem. Internatl. 2005, 46:453-464) to rat brain tissue. This assay serves as a selective measure of NR2B receptor binding activity in native rat brain receptors. Briefly, the brains of male Wistar rats were homogenized (Polytron) before centrifugation at 40,000×g for 15 minutes at 4° C. After 2 washes, the final pellet was homogenized and stored at −80° C. The protein concentration was determined by Bradford assay. [^3H] […] Non-specific binding was assessed in the presence of excess (10 μM) (E)-N1-(2-nethoxybenzyl)-cinnamidine.
Test compounds were solubilized at 10 mM in DMSO. Then the dilutions were performed with a constant solvent concentration (1% DMSO) in the assay. After incubation for 4.5 hours at room temperature, the assays were filtered on GF/3 filters pretreated with 0.3% (v/v) polyethylenimine (PEI) with a Packard system. The experiment was performed in duplicate (n=2).

Data set [2] concerns wild type mice (male NMRI). Put plainly: Marble Burying Test in wild type mice. The class given is in vivo, mouse. As to the method:
Animals. Male NMRI mice (20-30 g body weight) were obtained from Janvier Labs (Le Genest-Saint Isle, France) and allowed to acclimate to the animal facility for at least 5 days. Twelve mice were studied per treatment group.
Compound formulation. The test compounds were prepared in a vehicle of 0.5% DMSO and 4% HP-β-CD, and administered orally (PO) or IP. The test compounds or vehicle were administered 20 minutes before the behavioral test described below. Clobazam (8 mg/kg IP), administered 30 minutes before the test, was used as the positive reference compound.
Clobazam was dispersed in 0.2% hydroxypropylmethylcellulose (HPMC) in physiological saline. Dosing volume was 10 mL/kg.
Testing procedure. The Marble Burying Test was conducted as previously described by Broekkamp et al. (Eur. J. Pharmacol. 1986, 126:223-229). Mice exposed to small novel objects (marbles) will bury them in the sawdust floor covering. Anxiolytics decrease the number of marbles buried at non-sedating doses. Mice were individually placed in transparent plastic cages (33×21×18 cm) with 5 cm of sawdust on the floor and 25 marbles grouped in the center of the cage. The cage was covered with an inverted plastic cage. Each test cage, together with the marbles, was impregnated with mouse odor before-hand by leaving 10 mice in the cage for 15 minutes. These mice then played no further role in the experiment. The number of marbles covered by sawdust (⅔ or more) was counted at the end of the 30-minute test. The test was performed blind (compounds versus vehicle).
Statistical analyses. Data were analyzed by comparing test compound-treated groups with the vehicle control group using the Kruskal-Wallis test followed by post-hoc Mann-Whitney U tests. Data comparing the reference compound with the vehicle were analyzed using the Mann-Whitney U test. A p value<0.05 was considered significant.

[3] abbreviates: mean of replicates, read-out: Arithmetic Mean Ki.
The mark [4] stands for this setting: Mus musculus, ip, read-out: Percent Change in marbles buried relative to vehicle.
The mark [5] stands for this setting: Mus musculus, po, read-out: Percent Change in marbles buried relative to vehicle.

hERG channel, sequence (Q12809 whole entry): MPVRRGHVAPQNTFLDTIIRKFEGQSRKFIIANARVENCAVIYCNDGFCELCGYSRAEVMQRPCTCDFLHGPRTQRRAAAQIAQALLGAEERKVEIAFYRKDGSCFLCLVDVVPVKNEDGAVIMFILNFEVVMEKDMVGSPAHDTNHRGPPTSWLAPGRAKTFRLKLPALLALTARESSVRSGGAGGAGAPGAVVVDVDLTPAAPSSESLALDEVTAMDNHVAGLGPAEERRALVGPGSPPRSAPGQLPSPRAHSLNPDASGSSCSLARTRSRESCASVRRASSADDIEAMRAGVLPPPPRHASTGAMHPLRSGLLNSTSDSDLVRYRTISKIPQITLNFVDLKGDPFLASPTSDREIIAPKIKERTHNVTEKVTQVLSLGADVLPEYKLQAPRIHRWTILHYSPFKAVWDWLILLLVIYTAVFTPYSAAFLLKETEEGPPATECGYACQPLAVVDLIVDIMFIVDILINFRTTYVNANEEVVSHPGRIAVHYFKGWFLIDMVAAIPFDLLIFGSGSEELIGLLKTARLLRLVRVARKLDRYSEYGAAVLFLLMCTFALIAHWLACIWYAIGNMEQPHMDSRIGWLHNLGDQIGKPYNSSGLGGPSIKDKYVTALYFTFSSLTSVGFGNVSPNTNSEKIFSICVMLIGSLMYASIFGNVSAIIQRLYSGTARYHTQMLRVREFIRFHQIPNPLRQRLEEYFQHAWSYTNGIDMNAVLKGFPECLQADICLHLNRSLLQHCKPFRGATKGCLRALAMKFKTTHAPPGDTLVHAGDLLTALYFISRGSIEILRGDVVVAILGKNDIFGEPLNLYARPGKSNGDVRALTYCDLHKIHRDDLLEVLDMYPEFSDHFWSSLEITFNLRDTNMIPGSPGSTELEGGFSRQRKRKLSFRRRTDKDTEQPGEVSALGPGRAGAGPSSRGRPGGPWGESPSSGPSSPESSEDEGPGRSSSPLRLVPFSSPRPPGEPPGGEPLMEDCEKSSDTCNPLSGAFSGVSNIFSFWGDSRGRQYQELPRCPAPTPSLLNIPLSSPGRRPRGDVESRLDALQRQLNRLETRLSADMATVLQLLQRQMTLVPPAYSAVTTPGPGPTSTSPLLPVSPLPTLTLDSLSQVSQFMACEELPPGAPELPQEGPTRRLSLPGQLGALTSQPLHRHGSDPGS
human NR1/NR2B, sequence (Q13224 27-1484, other chains not shown): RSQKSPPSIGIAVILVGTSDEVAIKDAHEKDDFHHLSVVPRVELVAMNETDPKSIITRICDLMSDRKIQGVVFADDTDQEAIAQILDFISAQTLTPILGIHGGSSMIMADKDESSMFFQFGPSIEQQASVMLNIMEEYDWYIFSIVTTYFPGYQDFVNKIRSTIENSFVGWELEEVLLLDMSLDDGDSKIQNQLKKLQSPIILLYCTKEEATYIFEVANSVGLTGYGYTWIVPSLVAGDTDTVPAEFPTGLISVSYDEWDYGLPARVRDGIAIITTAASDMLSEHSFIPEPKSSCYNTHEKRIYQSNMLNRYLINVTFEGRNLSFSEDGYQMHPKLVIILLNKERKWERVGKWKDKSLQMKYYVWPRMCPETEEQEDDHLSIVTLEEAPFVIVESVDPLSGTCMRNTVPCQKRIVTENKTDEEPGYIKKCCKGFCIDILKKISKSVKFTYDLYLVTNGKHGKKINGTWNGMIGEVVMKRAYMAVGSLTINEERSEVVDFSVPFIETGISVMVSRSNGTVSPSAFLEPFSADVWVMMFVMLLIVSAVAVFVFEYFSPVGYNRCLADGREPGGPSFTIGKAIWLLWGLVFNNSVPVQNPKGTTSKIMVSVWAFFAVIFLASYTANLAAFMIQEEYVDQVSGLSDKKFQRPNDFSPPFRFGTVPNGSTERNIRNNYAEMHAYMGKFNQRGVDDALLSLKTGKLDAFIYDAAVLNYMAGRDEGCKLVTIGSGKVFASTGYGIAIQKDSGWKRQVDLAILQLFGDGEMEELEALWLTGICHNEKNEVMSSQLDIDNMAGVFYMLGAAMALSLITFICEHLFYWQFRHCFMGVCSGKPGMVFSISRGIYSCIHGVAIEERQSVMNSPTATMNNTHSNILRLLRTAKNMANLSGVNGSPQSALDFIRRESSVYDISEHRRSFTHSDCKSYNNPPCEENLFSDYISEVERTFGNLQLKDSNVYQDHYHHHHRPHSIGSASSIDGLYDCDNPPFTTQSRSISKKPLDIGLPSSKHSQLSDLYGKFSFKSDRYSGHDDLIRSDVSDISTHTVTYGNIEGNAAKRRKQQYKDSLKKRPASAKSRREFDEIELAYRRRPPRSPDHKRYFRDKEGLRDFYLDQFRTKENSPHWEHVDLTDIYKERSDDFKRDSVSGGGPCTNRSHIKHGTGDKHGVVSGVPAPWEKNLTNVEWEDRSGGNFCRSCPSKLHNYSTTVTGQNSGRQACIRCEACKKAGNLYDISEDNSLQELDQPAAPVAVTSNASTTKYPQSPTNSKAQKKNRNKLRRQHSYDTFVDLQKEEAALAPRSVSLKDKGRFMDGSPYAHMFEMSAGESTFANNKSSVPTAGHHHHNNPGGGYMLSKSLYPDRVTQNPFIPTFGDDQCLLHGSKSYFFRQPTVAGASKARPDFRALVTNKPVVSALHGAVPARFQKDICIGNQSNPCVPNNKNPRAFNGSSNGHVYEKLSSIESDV
native rat brain NR2B receptors, sequence (Q00960 27-1482, other chains not shown): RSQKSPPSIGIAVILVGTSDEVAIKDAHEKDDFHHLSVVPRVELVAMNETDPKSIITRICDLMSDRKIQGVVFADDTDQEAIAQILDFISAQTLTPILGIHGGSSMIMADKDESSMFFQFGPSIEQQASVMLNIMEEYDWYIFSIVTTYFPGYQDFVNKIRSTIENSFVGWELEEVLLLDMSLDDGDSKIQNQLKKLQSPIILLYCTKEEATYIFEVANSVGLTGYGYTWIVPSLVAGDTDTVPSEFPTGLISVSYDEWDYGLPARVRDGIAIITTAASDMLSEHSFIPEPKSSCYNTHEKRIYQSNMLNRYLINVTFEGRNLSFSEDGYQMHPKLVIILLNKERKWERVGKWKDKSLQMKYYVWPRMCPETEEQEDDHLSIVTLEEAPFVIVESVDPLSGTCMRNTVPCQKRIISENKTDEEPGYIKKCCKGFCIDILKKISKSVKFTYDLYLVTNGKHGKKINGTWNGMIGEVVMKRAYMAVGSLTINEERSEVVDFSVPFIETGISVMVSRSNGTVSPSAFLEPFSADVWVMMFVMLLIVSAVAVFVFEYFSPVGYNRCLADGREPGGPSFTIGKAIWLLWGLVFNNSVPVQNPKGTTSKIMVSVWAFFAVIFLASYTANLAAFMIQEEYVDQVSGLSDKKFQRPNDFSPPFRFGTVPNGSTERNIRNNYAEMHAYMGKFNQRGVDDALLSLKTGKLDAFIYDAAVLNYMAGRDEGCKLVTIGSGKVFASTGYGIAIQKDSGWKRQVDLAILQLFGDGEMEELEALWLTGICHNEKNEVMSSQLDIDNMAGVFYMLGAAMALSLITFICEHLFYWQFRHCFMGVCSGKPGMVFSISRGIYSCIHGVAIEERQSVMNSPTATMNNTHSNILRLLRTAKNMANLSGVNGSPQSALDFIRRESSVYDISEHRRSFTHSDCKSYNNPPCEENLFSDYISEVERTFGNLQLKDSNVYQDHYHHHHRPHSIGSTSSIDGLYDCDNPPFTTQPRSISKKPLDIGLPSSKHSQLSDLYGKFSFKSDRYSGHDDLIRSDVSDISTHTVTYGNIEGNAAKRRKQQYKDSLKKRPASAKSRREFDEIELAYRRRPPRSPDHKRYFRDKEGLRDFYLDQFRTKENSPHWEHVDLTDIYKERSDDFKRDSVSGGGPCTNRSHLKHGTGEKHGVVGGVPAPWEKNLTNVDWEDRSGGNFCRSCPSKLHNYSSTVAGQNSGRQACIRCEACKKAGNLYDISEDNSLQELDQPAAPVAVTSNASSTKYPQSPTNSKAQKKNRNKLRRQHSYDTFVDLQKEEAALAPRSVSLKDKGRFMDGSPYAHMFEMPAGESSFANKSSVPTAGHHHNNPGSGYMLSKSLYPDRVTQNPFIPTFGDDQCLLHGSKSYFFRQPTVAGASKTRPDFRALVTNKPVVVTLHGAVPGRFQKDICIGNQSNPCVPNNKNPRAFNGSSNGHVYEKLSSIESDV
CYP2D6, sequence (P10635 whole entry): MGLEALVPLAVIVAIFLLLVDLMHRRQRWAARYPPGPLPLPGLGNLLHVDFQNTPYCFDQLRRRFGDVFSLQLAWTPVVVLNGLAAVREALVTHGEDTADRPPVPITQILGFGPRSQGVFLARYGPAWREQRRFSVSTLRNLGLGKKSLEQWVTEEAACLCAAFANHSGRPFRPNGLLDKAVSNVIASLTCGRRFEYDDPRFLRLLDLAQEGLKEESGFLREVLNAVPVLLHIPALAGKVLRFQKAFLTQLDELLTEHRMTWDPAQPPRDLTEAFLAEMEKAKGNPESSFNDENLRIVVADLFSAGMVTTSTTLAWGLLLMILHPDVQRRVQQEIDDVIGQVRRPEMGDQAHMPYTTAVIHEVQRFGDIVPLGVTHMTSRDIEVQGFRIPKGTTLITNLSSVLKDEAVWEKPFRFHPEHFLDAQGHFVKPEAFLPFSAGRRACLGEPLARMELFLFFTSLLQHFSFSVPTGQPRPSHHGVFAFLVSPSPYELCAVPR

The compound `O=C(OCc1ccc(Cl)cc1)N1CC[C@H](CNc2nccn3cnnc23)C(F)(F)C1` [E1-1.3^B′] had an inhibition at 5 min, 10 µM against hERG channel of 19%. In addition, on CYP2D6, the inhibition at 10 min, 10 µM is 37%. Moreover, the IC50 on human NR1/NR2B (Table 1.1B), on human NR1/NR2B (Table 1.3B) and at human NR1/NR2B (Table 1.4B) was 14.8 nM throughout. Further, the Ki in data set [1] (setting [3]) turned out to be 8.67 nM.

In turn, `O=C(OCc1ccc(F)cc1)N1CC[C@H](CNc2nccn3cnnc23)C(F)(F)C1` [E1-1.4^B′] yielded an inhibition at 5 min, 10 µM against hERG channel of 11%. Further, the inhibition at 10 min, 10 µM at CYP2D6 came out at 19%. The IC50 at human NR1/NR2B (Table 1.1B), at human NR1/NR2B (Table 1.3B) and at human NR1/NR2B (Table 1.4B) was 20.5 nM throughout.

On to `Cc1ccc(COC(=O)N2CC[C@H](CNc3cnccn3)C(F)(F)C2)cc1` [E1-21.2^B′], for which the inhibition at 5 min, 10 µM on hERG channel was found to be 27%. Further, on CYP2D6, the inhibition at 10 min, 10 µM turned out to be 97%. The IC50 on human NR1/NR2B (Table 1.1B), at human NR1/NR2B (Table 1.3B) and at human NR1/NR2B (Table 1.4B) was 13.9 nM throughout.

With `O=C(OCc1ccc(F)cc1)N1CC[C@H](CNc2ncccn2)C(F)(F)C1` [E1-22.4^B′, (R)-4-fluorobenzyl 3,3-difluoro-4-((pyrimidin-2-ylamino)methyl)piperidine-1-carboxylate methanesulfonate], in data set [2] (setting [4]), the change in vivo at 0.3 mg/kg is -6% and the change in vivo at 3 mg/kg is -99%. The change in vivo at 1.78 mg/kg in data set [2] (Mus musculus, ip, 1.78 mg/kg, read-out: Percent Change in marbles buried relative to vehicle) is -97%. The IC50 at hERG channel was found to be 39000 nM. Moreover, the IC50 against CYP2D6 is greater than 50000 nM.

Consider `CCc1ccc(COC(=O)N2CC[C@H](CNc3ncccn3)C(F)(F)C2)cc1` [E1-22.5^B′, (R)-4-ethylbenzyl 3,3-difluoro-4-((pyrimidin-2-ylamino)methyl)piperidine-1-carboxylate methanesulfonate], for which the change in vivo at 0.1 mg/kg in data set [2] (Mus musculus, ip, 0.1 mg/kg, read-out: Percent Change in marbles buried relative to vehicle) was -9%. Moreover, in data set [2] (setting [4]), the change in vivo at 0.3 mg/kg turned out to be 8% and the change in vivo at 3 mg/kg was -100%. In addition, the change in vivo at 10 mg/kg in data set [2] (Mus musculus, ip, 10 mg/kg, read-out: Percent Change in marbles buried relative to vehicle) was -100%. Further, in data set [2] (setting [5]), the change in vivo at 0.3 mg/kg was -11%, the change in vivo at 1 mg/kg was -15% and the change in vivo at 3 mg/kg is -76%. For the same compound, the “efficacy in the Marble Burying Test” value in data set [2] (lowest test concentration of 1 mg/kg, IP) is “fully efficacious”. At hERG channel, this compound gave an IC50 of 9200 nM. At CYP2D6, this compound registered an IC50 of 29000 nM.

The compound `Cc1ccc(COC(=O)N2CC[C@H](CNc3ccc(C)cn3)C(F)(F)C2)cc1` [E1-23.26^B′, (R)-4-methylbenzyl 3,3-difluoro-4-(((5-methylpyridin-2-yl)amino)methyl)piperidine-1-carboxylate] gave an IC50 at CYP2D6 of 9700 nM. In addition, the Ki in data set [1] (setting [3]) is 6.5 nM.

Regarding `Cc1ccc(COC(=O)N2CC[C@H](CNc3cccnn3)C(F)(F)C2)cc1` [E1-24.2^B′, (R)-4-methylbenzyl 3,3-difluoro-4-((pyridazin-3-ylamino)methyl)piperidine-1-carboxylate], the IC50 worked out at 25000 nM against hERG channel and 15000 nM at CYP2D6. Besides, the Ki in data set [1] (individual replicate, read-out: Ki, result from each assay) is 2.1 nM and 3.6 nM; in data set [1] (setting [3]), 2.85 nM.

As to `Cc1ccc(COC(=O)N2CC[C@H](CNc3ccncc3)C(F)(F)C2)cc1` [E1-38.2^B′, (R)-4-methylbenzyl 3,3-difluoro-4-((pyridin-4-ylamino)methyl)piperidine-1-carboxylate methanesulfonate], in data set [2] (setting [4]), the change in vivo at 0.3 mg/kg was determined as 4%, the change in vivo at 1 mg/kg was -18% and the change in vivo at 3 mg/kg is -76%. Besides, the midpoint of inhibition against hERG channel, the IC50, lay at 2900 nM. Besides, inhibition on CYP2D6 was half-maximal at 1490 nM (IC50).

For `O=C(OC1Cc2ccccc2C1)N1CC[C@H](CNc2ncccn2)C(F)(F)C1` [III-E1-22.1^B′, (R)-2,3-dihydro-1H-inden-2-yl 3,3-difluoro-4-((pyrimidin-2-ylamino)methyl)piperidine-1-carboxylate methanesulfonate], the IC50 was 35000 nM against hERG channel and greater than 50000 nM at CYP2D6.
